Reference: ChEMBL document CHEMBL3885881, “DrugMatrix”

Organism: Rattus norvegicus
Experiment: DrugMatrix - Regimen: Daily Repeat
Assay type: toxicity, organism-based, Sprague-Dawley
Set-up: regimen Daily Repeat, gender Male, age 6-8 weeks
Settings: in vivo, sc, route mini-PUMP - SUBCUTANEOUS, vehicle 100 % SALINE; for ABSOLUTE BASOPHIL / ABSOLUTE EOSINOPHIL / ABSOLUTE LYMPHOCYTE / ABSOLUTE MONOCYTE / ABSOLUTE SEGMENTED NEUTROPHIL / BASOPHIL / EOSINOPHIL / ERYTHROCYTE COUNT / HEMOGLOBIN / LEUKOCYTE COUNT / LYMPHOCYTE / MEAN CORPUSCULAR HEMOGLOBIN / MEAN CORPUSCULAR HEMOGLOBIN CONCENTRATION / MEAN CORPUSCULAR VOLUME / NUCLEATED RED BLOOD CELLS / PLATELET COUNT: tissue Blood; for ALANINE AMINOTRANSFERASE / ALBUMIN / ALKALINE PHOSPHATASE / ASPARTATE AMINOTRANSFERASE / BLOOD UREA NITROGEN / CARBON DIOXIDE / CHLORIDE / CHOLESTEROL / CREATININE / LACTATE DEHYDROGENASE / LIPASE / PHOSPHORUS / POTASSIUM / SODIUM / TOTAL BILIRUBIN / TOTAL PROTEIN: tissue Plasma
[1] = 0 mg/kg, 72 h, dose level Control, time 3 day
[2] = 0 mg/kg, 120 h, dose level Control, time 5 day
[3] = 0 mg/kg, […], dose level Control, time 14 day
[4] = […], 72 h, dose 0.77 mg/Kg, dose level High, time 3 day
[5] = […], 120 h, dose 0.77 mg/Kg, dose level High, time 5 day

With `CNCC(O)c1ccc(O)c(O)c1` (configuration not stated) [RACEPINEPHRINE] the “ABSOLUTE BASOPHIL” value [1] was 0 CELLS/uL, the “ABSOLUTE EOSINOPHIL” value [1] was 77.17 CELLS/uL and the “ABSOLUTE LYMPHOCYTE” value [1] was 14293.83 CELLS/uL. For the same compound, the “ABSOLUTE MONOCYTE” value [1] was 354 CELLS/uL, the “ABSOLUTE SEGMENTED NEUTROPHIL” value [1] was 1658.33 CELLS/uL and the BASOPHIL [1] was 0%. For the same compound, the EOSINOPHIL [1] was 0.5%, the “ERYTHROCYTE COUNT” value [1] was 6.27 x10E6/uL and the HEMOGLOBIN [1] was 13.4 G/DL. The “LEUKOCYTE COUNT” value [1] was 16.38 x10E3/uL, the LYMPHOCYTE [1] was 87.17% and the “MEAN CORPUSCULAR HEMOGLOBIN” value [1] was 21.42 pg. For the same compound, the “MEAN CORPUSCULAR HEMOGLOBIN CONCENTRATION” value [1] was 36.27 G/DL, the “MEAN CORPUSCULAR VOLUME” value [1] was 59.03 fL and the “NUCLEATED RED BLOOD CELLS” value [1] was 0 /100WBC. The “PLATELET COUNT” value [1] was 904.67 x10E3/uL, the “ALANINE AMINOTRANSFERASE” value [1] was 48.33 u/L and the ALBUMIN [1] was 3.82 G/DL. For the same compound, the “ALKALINE PHOSPHATASE” value [1] was 282.33 u/L, the “ASPARTATE AMINOTRANSFERASE” value [1] was 86.83 u/L and the “BLOOD UREA NITROGEN” value [1] was 20.17 mg/dL. The “CARBON DIOXIDE” value [1] was 34.67 mmol/L, the CHLORIDE [1] was 102 MEQ/L and the CHOLESTEROL [1] was 71.5 mg/dL. The CREATININE [1] was 0.2 mg/dL, the “LACTATE DEHYDROGENASE” value [1] was 159 u/L and the LIPASE [1] was 9 u/L. The PHOSPHORUS [1] was 10.12 mg/dL, the POTASSIUM [1] was 5.92 MEQ/L and the SODIUM [1] was 147.8 MEQ/L. For the same compound, the “TOTAL BILIRUBIN” value [1] was 0.2 mg/dL, the “TOTAL PROTEIN” value [1] was 6.05 G/DL and the “ABSOLUTE BASOPHIL” value [2] was 0 CELLS/uL. For the same compound, the “ABSOLUTE EOSINOPHIL” value [2] was 0 CELLS/uL, the “ABSOLUTE LYMPHOCYTE” value [2] was 14257.33 CELLS/uL and the “ABSOLUTE MONOCYTE” value [2] was 326 CELLS/uL. The “ABSOLUTE SEGMENTED NEUTROPHIL” value [2] was 3216.67 CELLS/uL, the BASOPHIL [2] was 0% and the EOSINOPHIL [2] was 0%. For the same compound, the “ERYTHROCYTE COUNT” value [2] was 6.11 x10E6/uL, the HEMOGLOBIN [2] was 13.18 G/DL and the “LEUKOCYTE COUNT” value [2] was 17.8 x10E3/uL. For the same compound, the LYMPHOCYTE [2] was 80.5%, the “MEAN CORPUSCULAR HEMOGLOBIN” value [2] was 21.62 pg and the “MEAN CORPUSCULAR HEMOGLOBIN CONCENTRATION” value [2] was 36.42 G/DL. The “MEAN CORPUSCULAR VOLUME” value [2] was 59.37 fL, the “NUCLEATED RED BLOOD CELLS” value [2] was 0 /100WBC and the “PLATELET COUNT” value [2] was 1311 x10E3/uL. For the same compound, the “ALANINE AMINOTRANSFERASE” value [2] was 47 u/L, the ALBUMIN [2] was 3.83 G/DL and the “ALKALINE PHOSPHATASE” value [2] was 260.33 u/L. The “ASPARTATE AMINOTRANSFERASE” value [2] was 76.17 u/L, the “BLOOD UREA NITROGEN” value [2] was 14.67 mg/dL and the “CARBON DIOXIDE” value [2] was 31.33 mmol/L. The CHLORIDE [2] was 101.17 MEQ/L, the CHOLESTEROL [2] was 75 mg/dL and the “LACTATE DEHYDROGENASE” value [2] was 147.33 u/L. For the same compound, the LIPASE [2] was 9.33 u/L, the PHOSPHORUS [2] was 10.97 mg/dL and the POTASSIUM [2] was 6 MEQ/L. For the same compound, the SODIUM [2] was 145.52 MEQ/L, the “TOTAL PROTEIN” value [2] was 5.83 G/DL and the “ABSOLUTE BASOPHIL” value [3] was 0 CELLS/uL. For the same compound, the “ABSOLUTE EOSINOPHIL” value [3] was 64.5 CELLS/uL, the “ABSOLUTE LYMPHOCYTE” value [3] was 12507.83 CELLS/uL and the “ABSOLUTE MONOCYTE” value [3] was 380.33 CELLS/uL. The “ABSOLUTE SEGMENTED NEUTROPHIL” value [3] was 2414 CELLS/uL, the BASOPHIL [3] was 0% and the EOSINOPHIL [3] was 0.5%. For the same compound, the “ERYTHROCYTE COUNT” value [3] was 6.1 x10E6/uL, the HEMOGLOBIN [3] was 12.88 G/DL and the “LEUKOCYTE COUNT” value [3] was 15.37 x10E3/uL. For the same compound, the LYMPHOCYTE [3] was 80.83%, the “MEAN CORPUSCULAR HEMOGLOBIN” value [3] was 21.18 pg and the “MEAN CORPUSCULAR HEMOGLOBIN CONCENTRATION” value [3] was 36.43 G/DL. The “MEAN CORPUSCULAR VOLUME” value [3] was 58.17 fL, the “NUCLEATED RED BLOOD CELLS” value [3] was 0.17 /100WBC and the “PLATELET COUNT” value [3] was 1016 x10E3/uL. For the same compound, the “ALANINE AMINOTRANSFERASE” value [3] was 53.33 u/L, the ALBUMIN [3] was 3.93 G/DL and the “ALKALINE PHOSPHATASE” value [3] was 319.83 u/L. For the same compound, the “ASPARTATE AMINOTRANSFERASE” value [3] was 84 u/L, the “BLOOD UREA NITROGEN” value [3] was 15.5 mg/dL and the “CARBON DIOXIDE” value [3] was 34 mmol/L. For the same compound, the CHLORIDE [3] was 101.83 MEQ/L, the CHOLESTEROL [3] was 57 mg/dL and the CREATININE [3] was 0.21 mg/dL. For the same compound, the “LACTATE DEHYDROGENASE” value [3] was 104.67 u/L, the LIPASE [3] was 9.17 u/L and the PHOSPHORUS [3] was 11.12 mg/dL. For the same compound, the POTASSIUM [3] was 5.81 MEQ/L, the SODIUM [3] was 144.85 MEQ/L and the “TOTAL BILIRUBIN” value [3] was 0.18 mg/dL. The “TOTAL PROTEIN” value [3] was 5.92 G/DL, the “ABSOLUTE BASOPHIL” value [4] was 0 CELLS/uL and the “ABSOLUTE EOSINOPHIL” value [4] was 65.33 CELLS/uL. For the same compound, the “ABSOLUTE LYMPHOCYTE” value [4] was 15348.67 CELLS/uL, the “ABSOLUTE MONOCYTE” value [4] was 375.67 CELLS/uL and the “ABSOLUTE SEGMENTED NEUTROPHIL” value [4] was 2177 CELLS/uL. The BASOPHIL [4] was 0%, the “ERYTHROCYTE COUNT” value [4] was 6.29 x10E6/uL and the HEMOGLOBIN [4] was 13.53 G/DL. The “LEUKOCYTE COUNT” value [4] was 17.97 x10E3/uL, the “MEAN CORPUSCULAR HEMOGLOBIN” value [4] was 21.53 pg and the “MEAN CORPUSCULAR HEMOGLOBIN CONCENTRATION” value [4] was 36.13 G/DL. For the same compound, the “MEAN CORPUSCULAR VOLUME” value [4] was 59.7 fL, the “NUCLEATED RED BLOOD CELLS” value [4] was 0 /100WBC and the “PLATELET COUNT” value [4] was 1245.67 x10E3/uL. For the same compound, the “ALANINE AMINOTRANSFERASE” value [4] was 52.67 u/L, the ALBUMIN [4] was 4 G/DL and the “ALKALINE PHOSPHATASE” value [4] was 340.67 u/L. The “ASPARTATE AMINOTRANSFERASE” value [4] was 85 u/L, the “BLOOD UREA NITROGEN” value [4] was 16.33 mg/dL and the “CARBON DIOXIDE” value [4] was 25.67 mmol/L. The CHLORIDE [4] was 101 MEQ/L, the CHOLESTEROL [4] was 83.33 mg/dL and the “LACTATE DEHYDROGENASE” value [4] was 441.33 u/L. For the same compound, the LIPASE [4] was 9.67 u/L, the PHOSPHORUS [4] was 12.23 mg/dL and the POTASSIUM [4] was 6.83 MEQ/L. For the same compound, the SODIUM [4] was 145.53 MEQ/L, the “TOTAL BILIRUBIN” value [4] was 0.13 mg/dL and the “TOTAL PROTEIN” value [4] was 6.3 G/DL. The “ABSOLUTE BASOPHIL” value [5] was 0 CELLS/uL, the “ABSOLUTE EOSINOPHIL” value [5] was 0 CELLS/uL and the “ABSOLUTE LYMPHOCYTE” value [5] was 14606 CELLS/uL. For the same compound, the “ABSOLUTE MONOCYTE” value [5] was 577.33 CELLS/uL, the “ABSOLUTE SEGMENTED NEUTROPHIL” value [5] was 4283.33 CELLS/uL and the BASOPHIL [5] was 0%. The EOSINOPHIL [5] was 0%, the “ERYTHROCYTE COUNT” value [5] was 6.1 x10E6/uL and the HEMOGLOBIN [5] was 13.07 G/DL. For the same compound, the “LEUKOCYTE COUNT” value [5] was 19.47 x10E3/uL, the LYMPHOCYTE [5] was 75% and the “MEAN CORPUSCULAR HEMOGLOBIN” value [5] was 21.43 pg. The “MEAN CORPUSCULAR HEMOGLOBIN CONCENTRATION” value [5] was 36.87 G/DL, the “MEAN CORPUSCULAR VOLUME” value [5] was 58.1 fL and the “NUCLEATED RED BLOOD CELLS” value [5] was 0 /100WBC. For the same compound, the “PLATELET COUNT” value [5] was 1295.33 x10E3/uL, the “ALANINE AMINOTRANSFERASE” value [5] was 52.33 u/L and the ALBUMIN [5] was 3.83 G/DL. For the same compound, the “ALKALINE PHOSPHATASE” value [5] was 328 u/L, the “ASPARTATE AMINOTRANSFERASE” value [5] was 85.67 u/L and the CHOLESTEROL [5] was 64.67 mg/dL. For the same compound, the CREATININE [5] was 0.15 mg/dL, the “LACTATE DEHYDROGENASE” value [5] was 386.33 u/L and the LIPASE [5] was 9 u/L. For the same compound, the PHOSPHORUS [5] was 12.27 mg/dL, the POTASSIUM [5] was 6.8 MEQ/L and the SODIUM [5] was 147.2 MEQ/L. The “TOTAL BILIRUBIN” value [5] was 0.1 mg/dL and the “TOTAL PROTEIN” value [5] was 5.9 G/DL.
